Test results: patent US11278549B2, “Method of treating obesity” (McMaster University, priority 2013, dated 2022)

Experiments:
UCP1 = test: Ucp1 promoter activity, Ucp1 mRNA and UCP1 protein in brown adipocytes; assay type: cell-based, mouse
Description: Using RNA-Seq, cultured human brown and beige adipocytes were interrogated for 5-HT receptor mRNA expression. Immortalized murine brown adipocytes (BAs) were treated with or without the selective 5-HT reuptake inhibitor (SSRI), paroxetine (250 nM). Subsequent studies were conducted with and without 5-HT2A agonists (1 pM-10 uM TCB-2, 1 pM-10 uM AL-34662, and 1 pM-10 uM NBOH-2C-CN) and 5-HT2A antagonists (100 fM-100 pM MDL-100907, 100 pM-10 uM xylamidine tosylate, 1 nM ketanserin, 10 nM altanserin, 100 fM-100 pM EMD-281,014, and 100 pM-10 uM sarpogrelate hydrochloride).
BA progenitors were isolated and immortalized from WT and serotonin transporter (SERT; Gene: Slc6a4) KO mice. These cells were then differentiated for 7 days to obtain mature BAs. BAs were then treated with different doses of 5-HT for 4 hours. RNA was isolated and quantified using RT-qPCR with probes specific for Slc6a4, Ucp1 and PPIA.
BA progenitors were isolated from mice expressing a transgene where the luciferase gene is driven by the Ucp1 promoter (i.e. Ucp1-Luc2 mice; a.k.a. ThermoMouse; Jackson Laboratories). Upon 9 days of differentiation, these BAs were treated for 4 hours with different doses of 5-HT. Because in vitro there is not a continuous supply of 5-HT as there is in vivo, cells were treated with paroxetine to inhibit the uptake and consequent degradation of 5-HT, and to observe 5-HT receptor specific effects. These cells were then lysed, incubated with a luciferin assay cocktail, and the light generated quantified on a microplate reader.

brown adipose tissue = test: Acute 5-HT with or without xylamidine pretreatment: BAT activity in vivo; design: species or system mice
Description: Mice housed at 30° C. were injected with xylamidine (3 mg/kg, −2 hour), 5-HT (5 mg/kg, −1 hour) and/or CL-316,243 (1 mg/kg, −20 min). […] Interscapular surface temperature under saline (C) and CL-316,243 (D) conditions were quantified. n=6. † indicates interaction effect via 2-way ANOVA. * indicates significant difference from saline via bonferonni post-hoc test. In all graphs, bars represent mean and error bars represent S.E.M;
(§1) To investigate effects in vivo, 5-HT (5 mg/kg i.p.) was acutely administered to mice with or without a peripherally-restricted 5-HT2A antagonist (xylamidine tosylate) (3 mg/kg i.p.) to assess BAT function. Chow fed female FVBNJ mice (Jackson laboratories) were fasted for 6 hours. Each mouse was intraperitoneal injected with Vehicle (0.9% NaCl) or Xylamidine (3 mg/kg in 0.9% NaCl) at −100 minutes, followed by Vehicle or 5-HT (5 mg/kg in 0.9% NaCl) at −40 minutes, and finally Glucose ([…]) at 0 minutes. Blood glucose was monitored at the indicated times (FIG. 22). Chow mice were administered xylamidine tosylate (3 mg/kg daily) via intraperitoneal injection for ˜5 weeks. Mice were then moved to anaesthetized and injected with either saline or CL-316,243. Oxygen consumption was recorded while at 30° C. Finally, xylamidine tosylate (3 mg/kg i.p. daily) was administered to mice on a HFD and indices of whole body metabolism, such as resting energy expenditure, glucose tolerance and NAFLD, were evaluated. The mRNA and protein expression of markers of beige adipose tissue (UCP1, PRDM16, NDUFB8, SDHB, MTCO1, UQCRC2 and ATP5A) were also evaluated.

5-HT2A = molecular target: T1, 5-HT2A (Mus musculus, UniProt P35363); test: Fluo-4 Ca2+ signals in brown adipocytes; assay type: cell-based
T1 construct: endogenous in cells; host or cells: immortalized murine brown adipocytes (differentiated)
Description: Immortalized BA progenitor cells obtained from 5-HT2A KO (B6; 129-5-HT2Atm1a/Nju from Nanjing Biomedical Research Institute of Nanjing University) mice were differentiated for 9 days to produce mature BAs. Cells were then stained with fluo-4 and treated with different concentrations of 5-HT to obtain a dose response curve. Values from BAs expressing 5-HT2A used for other experiments were plotted as a WT comparison.

5-HT receptor = test: Isoproterenol-induced lipolysis (FFA release) in immortalized BAT cells; assay type: cell-based, mouse; details: 5-HT at 100 μM, n=2
Description: Briefly, confluent cells were placed in induction media (0.5 mM IBMX; 0.25 mM indomethacin; 2 μg/ml dexamethasone; 1 nM T3, 20 nM insulin) for two days and subsequently maintained on differentiation media (1 nM T3, 20 nM insulin). All experiments were performed on cultures 6-8 days post-induction. Unless otherwise indicated, cells were rinsed with PBS and media was changed to HEPES-buffered Krebs Ringer buffer (HKRB)+1% BSA. Where indicated, BAs were treated with serotonin for 30 min (100 μM; Sigma) followed by isoproterenol (1 nM, Sigma) for 4 h. The serotonin receptor antagonist, methysergide (3 μM) was used 45 min prior treatment with serotonin as above.

BAT cells = test: Serotonin on isoproterenol-stimulated cAMP and thermogenic program in BAT cells; assay type: cell-based, mouse; details: serotonin prior to isoproterenol
Description: To examine whether serotonin could alter cAMP and the induction of the thermogenic program in a cell autonomous manner, BAT cells were treated with the concentrations of serotonin observed in the BAT of Tph1^+/+ mice fed a HFD (FIG. 9b) prior to stimulation with isoproterenol ([…]). Serotonin treatment attenuated isoproterenol-stimulated cAMP and phosphorylation of protein kinase A substrates such as hormone sensitive lipase (HSL […]-FIG. 9c) and importantly also blunted the induction of the thermogenic gene program (FIG. 9d-f). […] Cell Culture. An immortalized brown adipocyte (BA) cell line derived from mouse fetal brown fat (as described in Uldry et al., Cell metabolism, 3 (2006) 333-341) was cultured and differentiated as previously described in Mottillo, Journal of Biological Chemistry, 287 (2012) 25038-25048. Briefly, confluent cells were placed in induction media (0.5 mM IBMX; 0.25 mM indomethacin; 2 μg/ml dexamethasone; 1 nM T3, 20 nM insulin) for two days and subsequently maintained on differentiation media (1 nM T3, 20 nM insulin). All experiments were performed on cultures 6-8 days post-induction. Unless otherwise indicated, cells were rinsed with PBS and media was changed to HEPES-buffered Krebs Ringer buffer (HKRB)+1% BSA. Where indicated, BAs were treated with serotonin for 30 min (100 μM; Sigma) followed by isoproterenol (1 nM, Sigma) for 4 h. […] cAMP measurements. cAMP levels were measured in BA stimulated for 10 min with isoproterenol (1 nM). […] The cAMP levels were quantified by ELISA (Biomedical Technologies Inc.) as previously described (Mottillo et al., American Journal of Physiology-Endocrinology And Metabolism, 301 (2011) […]-[…]). […] The expression pattern of various genes was quantified by qRT-PCR analysis, as previously described (Mottillo et al., American journal of physiology, 293 (2007) […]-1197). […] 25 ng of cDNA was analyzed in a 10 μl quantitative PCR reaction (Amplitaq Gold) as previously described. […] The extracts were recovered and proteins were quantified by using the bicinchoninic acid method (Pierce). […]

Chow mice = test: Repeated xylamidine tosylate in chow mice: BAT energy expenditure with saline or CL-316,243; assay type: in vivo
Description: as §1

mice on a HFD = test: Chronic xylamidine tosylate in mice on a HFD; assay type: in vivo
Description: (B) graphically depicts the fat content of mice from (A). […] Bars/points represent mean and error bars indicate S.E.M;
as §1

[1] = test system: Chow fed female FVBNJ mice; test: Acute xylamidine, 5-HT and glucose injection: glucose tolerance; assay type: in vivo; details: acute administration 3 mg/kg i.p.; effect larger when pre-treated with 5-HT
Description: as §1

[2] = chronic administration, high fat diet

T1 sequence (P35363 whole entry): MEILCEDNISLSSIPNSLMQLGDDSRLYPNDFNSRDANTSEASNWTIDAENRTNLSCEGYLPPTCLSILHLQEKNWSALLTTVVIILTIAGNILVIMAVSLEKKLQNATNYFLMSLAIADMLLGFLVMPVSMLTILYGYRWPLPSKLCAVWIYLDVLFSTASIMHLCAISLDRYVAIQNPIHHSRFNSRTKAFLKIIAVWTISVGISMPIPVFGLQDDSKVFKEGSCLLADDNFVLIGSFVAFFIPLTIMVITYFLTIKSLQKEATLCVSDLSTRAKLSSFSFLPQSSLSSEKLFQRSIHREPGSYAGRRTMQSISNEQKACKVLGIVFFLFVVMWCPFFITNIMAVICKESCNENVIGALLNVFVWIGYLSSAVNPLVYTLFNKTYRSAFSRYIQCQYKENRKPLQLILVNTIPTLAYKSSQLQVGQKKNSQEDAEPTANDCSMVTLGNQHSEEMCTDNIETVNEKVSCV

Structure (SMILES): NCCc1c[nH]c2ccc(O)cc12 [5-HT, 5-hydroxytryptamine]
- Ucp1 mRNA (UCP1; brown adipocytes): decreased
- Ucp1 promoter activity (UCP1; brown adipocytes): decreased
- UCP1 protein levels (UCP1; brown adipocytes, chronic treatment for NBOH-2C-CN): decreased
- UCP1 protein content (UCP1; cultured brown adipocytes, only in the presence of paroxetine (SSRI), 8 days): decreased
- brown adipose tissue associated oxygen consumption and inter-scapular surface area temperature (brown adipose tissue; BAT activated with CL-316,243, 5 mg/kg 5-HT): significantly attenuated
- markers of brown adipose tissue activity (VO2, interscapular surface temperature) (brown adipose tissue; thermoneutral conditions, BAT inactive (saline), 5 mg/kg 5-HT): no effect
- Ca2+ levels (5-HT2A; brown adipocytes stained with Fluo-4, agonist treatment): increased
- isoproterenol-induced increases in lipolysis (5-HT receptor): blunts
- isoproterenol-stimulated cAMP (BAT cells): attenuated
- phosphorylation of protein kinase A substrates (HSL S660) (BAT cells): attenuated
- induction of the thermogenic gene program (BAT cells; Pgc1a, Pdk4, Ucp1): blunted

Structure (SMILES): COc1cccc(OC(C)CNC(=N)Cc2cccc(C)c2)c1.Cc1ccc(S(=O)(=O)O)cc1 (stereo not shown) [xylamidine tosylate]
- effects of 5-HT on BAT activity (brown adipose tissue; pre-treatment 3 mg/kg, CL-316,243 activated BAT): completely blocked
- brown adipose tissue specific energy expenditure (Chow mice; chow mice, repeated administration 3 mg/kg daily ~5 weeks, CL-316,243): increased
- energy expenditure when BAT is inactive (Chow mice; saline): no effect
- oxygen consumption, heat production, and non-moving oxygen consumption (mice on a HFD; 3 mg/kg daily, high fat diet): increased
- glucose tolerance (mice on a HFD; 3 mg/kg daily, high fat diet (45% of calories from fat)): improved
- iWAT levels of UCP1 and mitochondrial proteins (mice on a HFD; [2]): increased
- iWAT mRNA levels of Prdm16 (mice on a HFD; [2]): elevated
- liver triglycerides levels (mice on a HFD; [2]): significantly reduced
- weight gain and increases in fat mass (mice on a HFD; [2]): prevented
- 5-HT induced Ca2+ transients (5-HT2A; pre-treatment with antagonist): attenuated
- glucose tolerance [1]: improved
